# Measured values as given in patent publication EP3130589A1, “HETEROCYCLIC AZA COMPOUNDS” (Grünenthal GmbH, priority 2015, dated 2017).
# Molecular target: T1, TRPV1 human (Homo sapiens, UniProt Q8NER1)
# T1 construct: expressed in transfected cells; host or cells: CHO K1 cells
# Assay: Functional testing on the vanilloid receptor 1 (VR1/TRPV1): FLIPR Ca2+ influx assay, inhibition of capsaicin (CAP) stimulation
# Type: cell-based
# Conditions: ne = did not show any effect in this assay; pAG = partial agonist
# Description: Furthermore, preference may be given to compounds according to the invention that cause a 50 per cent displacement of capsaicin, which is present at a concentration of 100 nM, in a FLIPR assay with CHO K1 cells which were transfected with the human VR1 gene at a concentration of less than 6,000 nM, preferably less than 5,000 nM, more preferably less that 3,000 nM or less than 1,000 nM and particularly preferably less than 300 nM, most particularly preferably less than 100 nM, even more preferably less than 75 nM, additionally preferably less than 50 nM, most preferably less than 10 nM.
# In the process, the Ca^2+ influx is quantified in the FLIPR assay with the aid of a Ca^2+-sensitive dye (type Fluo-4, Molecular Probes Europe BV, Leiden, the Netherlands) in a fluorescent imaging plate reader (FLIPR, Molecular Devices, Sunnyvale, USA), as described hereinafter.
# Functional testing carried out on the vanilloid receptor 1 (VRI/TRPV1 receptor) […]
# The number of cells in the suspension is set to 3 x 10^5 per mL and 150 µL of this suspension are in each case introduced into a recess in the cell culture plates coated as described hereinbefore. In the incubator the plates are left for two to three days at 37°C, 5 vol.-% of CO2 and 95 % relative humidity. Subsequently, the cells are loaded with 2 µM of Fluo-4 and 0.01 vol.-% of Pluronic F127 (Molecular Probes Europe BV, Leiden, the Netherlands) in HBSS buffer for 30 min at 37°C, washed 3 times with HBSS buffer and after further incubation for 15 min at RT used for Ca^2+ measurement in a FLIPR assay. The Ca^2+-dependent fluorescence is in this case measured before and after the addition of substances (λex = 488 nm, λem = 540 nm). Quantification is carried out by measuring the highest fluorescence intensity (FC, fluorescence counts) over time.
# The FLIPR protocol consists of 2 substance additions. First the compounds to be tested (10 µM) are pipetted onto the cells and the Ca^2+ influx is compared with the control (capsaicin 10 µM). This provides the result in % activation based on the Ca^2+ signal after the addition of 10 µM of capsaicin (CP). After 5 min incubation, 100 nM of capsaicin are applied and the Ca^2+ influx is also determined. Desensitising agonists and antagonists lead to suppression of the Ca^2+ influx. The % inhibition is calculated compared to the maximum achievable inhibition with 10 µM of capsazepine.
# Triple analyses (n=3) are carried out and repeated in at least 3 independent experiments (N=4). Starting from the percentage displacement caused by different concentrations of the compounds to be tested of general formula I, IC50 inhibitory concentrations which cause a 50% displacement of capsaicin were calculated.
# Ki values for the test substances were obtained by conversion by means of the Cheng-Prusoff equation (Cheng, Prusoff; Biochem. Pharmacol. 22, 3099-3108, 1973).
# T1 sequence (Q8NER1 whole entry): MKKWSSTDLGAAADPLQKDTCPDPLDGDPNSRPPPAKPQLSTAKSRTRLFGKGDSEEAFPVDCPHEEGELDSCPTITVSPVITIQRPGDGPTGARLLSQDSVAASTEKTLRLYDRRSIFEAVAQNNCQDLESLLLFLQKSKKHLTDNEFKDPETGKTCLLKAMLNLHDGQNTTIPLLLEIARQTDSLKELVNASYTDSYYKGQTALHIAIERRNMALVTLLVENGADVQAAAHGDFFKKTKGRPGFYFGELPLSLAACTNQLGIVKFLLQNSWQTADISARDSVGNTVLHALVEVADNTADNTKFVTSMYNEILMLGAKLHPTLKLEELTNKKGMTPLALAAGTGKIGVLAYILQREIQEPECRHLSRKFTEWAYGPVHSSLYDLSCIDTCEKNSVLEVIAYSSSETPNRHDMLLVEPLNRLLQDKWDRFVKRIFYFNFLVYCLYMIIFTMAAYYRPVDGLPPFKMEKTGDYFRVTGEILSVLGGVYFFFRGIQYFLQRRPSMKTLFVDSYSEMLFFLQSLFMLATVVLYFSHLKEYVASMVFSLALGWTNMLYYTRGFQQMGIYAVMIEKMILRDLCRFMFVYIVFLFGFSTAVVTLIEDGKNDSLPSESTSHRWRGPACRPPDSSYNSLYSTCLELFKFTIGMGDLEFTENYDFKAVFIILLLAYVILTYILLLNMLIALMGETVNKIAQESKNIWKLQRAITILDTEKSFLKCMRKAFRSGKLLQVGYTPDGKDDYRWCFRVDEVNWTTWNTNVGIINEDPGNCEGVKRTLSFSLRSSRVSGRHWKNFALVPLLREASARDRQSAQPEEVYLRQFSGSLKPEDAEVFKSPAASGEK
smiles,measurement,value
"CC1CCN(c2nc(C(F)(F)F)ccc2CNC(=O)Nc2nc3ccccc3[nH]2)CC1 [example compound 26, 1-(1H-benzo[d]imidazol-2-yl)-3-((2-(4-methylpiperidin-1-yl)-6-(trifluoromethyl)pyridin-3-yl)methyl)urea]","TRPV1 human (f) CAP, result in words",ne
